# In US6737383B1, “Herbicidal oxadiazolidines” (priority 1999, dated 2004):
# How the values were obtained:
# Settings in all cases: Preemergence
# bedstraw = assay: Test B pre/postemergence bedstraw; type: in vivo, Galium aparine
# From the text: (§1) Seeds of bedstraw (Galium aparine), blackgrass (Alopecurus myosuroides), surinam grass (Brachiaria decumbens), cocklebur (Xanthium strumarium), corn (Zea mays), crabgrass (Digitaria sanguinalis), giant foxtail (Setaria faberii), morningglory (Ipomoea hederacea), pigweed (Amaranthus retroflexus), rape (Brassica napus), soybean (Glycine max), sugar beet (Beta vulgaris), velvetleaf (Abutilon theophrasti), wheat (Triticum aestivum), wild oat (Avena fatua) and purple nutsedge (Cyperus rotundus) tubers were planted and treated preemnergence with test chemicals formulated in a non-phytotoxic solvent mixture which included a surfactant.
# (§2) At the same time, these crop and weed species were also treated with postemergence applications of test chemicals formulated in the same manner. Plants ranged in height from 2 to 18 cm (1- to 4-leaf stage) for postemergence treatments. Plant species in the flood test consisted of rice (Oryza sativa), smallflower flatsedge (Cyperus difformis), duck salad (Heteranthera limosa) and bamyardgrass (Echinochloa crus-galli) grown to the 2-leaf stage for testing. Treated plants and controls were maintained in a greenhouse for twelve to sixteen days, after which all species were compared to controls and visually evaluated. Plant response ratings, summarized in Table B, are based on a scale of 0 to 10 where 0 is no effect and 10 is complete control. A dash (−) response means no test result.
# blackgrass = assay: Test B pre/postemergence blackgrass; type: in vivo, Alopecurus myosuroides
# From the text: as §1, §2
# surinam grass = assay: Test B pre/postemergence surinam grass; type: in vivo, Brachiaria decumbens
# From the text: as §1, §2
# cocklebur = assay: Test B pre/postemergence cocklebur; type: in vivo, Xanthium strumarium
# From the text: as §1, §2
# corn = assay: Test B pre/postemergence corn; type: in vivo, Zea mays
# From the text: as §1, §2
# crabgrass = assay: Test B pre/postemergence crabgrass; type: in vivo, Digitaria sanguinalis
# From the text: as §1, §2
# giant foxtail = assay: Test B pre/postemergence giant foxtail; type: in vivo, Setaria faberii
# From the text: as §1, §2
# morningglory = assay: Test B pre/postemergence morningglory; type: in vivo, Ipomoea hederacea
# From the text: as §1, §2
# pigweed = assay: Test B pre/postemergence pigweed; type: in vivo, Amaranthus retroflexus
# From the text: as §1, §2
# rape = assay: Test B pre/postemergence rape; type: in vivo, Brassica napus
# From the text: as §1, §2
# soybean = assay: Test B pre/postemergence soybean; type: in vivo, Glycine max
# From the text: as §1, §2
# sugar beet = assay: Test B pre/postemergence sugar beet; type: in vivo, Beta vulgaris
# From the text: as §1, §2
# velvetleaf = assay: Test B pre/postemergence velvetleaf; type: in vivo, Abutilon theophrasti
# From the text: as §1, §2
# wheat = assay: Test B pre/postemergence wheat; type: in vivo, Triticum aestivum
# From the text: as §1, §2
# wild oat = assay: Test B pre/postemergence wild oat; type: in vivo, Avena fatua
# From the text: as §1, §2
# purple nutsedge = assay: Test B pre/postemergence purple nutsedge; type: in vivo, Cyperus rotundus
# From the text: as §1, §2
# [1] = Rate 62 g/ha, scale of 0 to 10 where 0 is no effect and 10 is complete control
# [2] = Rate 125 g/ha, scale of 0 to 10 where 0 is no effect and 10 is complete control
# [3] = Rate 250 g/ha, scale 0 (no effect) to 10 (complete control)
# [4] = Rate 500 g/ha, scale 0 to 10 (0 no effect, 10 complete control)
smiles,measurement,setting,value
CC(C)N(C(=O)n1oc(=O)n(C(C)C2=NOCC2)c1=O)c1ccc(F)cc1F (racemic) [Compound 730],Bedstraw plant response rating,bedstraw; [1],0
same,"Plant response rating, Bedstraw",bedstraw; [2],0
same,Bedstraw plant response rating,bedstraw; [3],0
same,Bedstraw plant response rating,bedstraw; [4],4
same,Blackgrass plant response rating,blackgrass; [1],6
same,"Plant response rating, Blackgrass",blackgrass; [2],9
same,Blackgrass plant response rating,blackgrass; [3],10
same,Blackgrass plant response rating,blackgrass; [4],10
same,B. signalgrass plant response rating,surinam grass; [1],0
same,"Plant response rating, B. signalgrass",surinam grass; [2],0
same,B. signalgrass plant response rating,surinam grass; [3],7
same,B. signalgrass plant response rating,surinam grass; [4],9
same,Cocklebur plant response rating,cocklebur; [1],0
same,"Plant response rating, Cocklebur",cocklebur; [2],0
same,Cocklebur plant response rating,cocklebur; [3],0
same,Cocklebur plant response rating,cocklebur; [4],0
same,Corn plant response rating,corn; [1],0
same,"Plant response rating, Corn",corn; [2],3
same,Corn plant response rating,corn; [3],4
same,Corn plant response rating,corn; [4],9
same,Crabgrass plant response rating,crabgrass; [1],9
same,"Plant response rating, Crabgrass",crabgrass; [2],9
same,Crabgrass plant response rating,crabgrass; [3],9
same,Crabgrass plant response rating,crabgrass; [4],10
same,Giant foxtail plant response rating,giant foxtail; [1],10
same,"Plant response rating, Giant foxtail",giant foxtail; [2],10
same,Giant foxtail plant response rating,giant foxtail; [3],10
same,Giant foxtail plant response rating,giant foxtail; [4],10
same,Morningglory plant response rating,morningglory; [1],0
same,"Plant response rating, Morningglory",morningglory; [2],0
same,Morningglory plant response rating,morningglory; [3],0
same,Morningglory plant response rating,morningglory; [4],2
same,Redroot pigweed plant response rating,pigweed; [1],6
same,"Plant response rating, Redroot pigweed",pigweed; [2],9
same,Redroot pigweed plant response rating,pigweed; [3],10
same,Redroot pigweed plant response rating,pigweed; [4],10
same,Rape plant response rating,rape; [1],0
same,"Plant response rating, Rape",rape; [2],0
same,Rape plant response rating,rape; [3],2
same,Rape plant response rating,rape; [4],7
same,Soybean plant response rating,soybean; [1],0
same,"Plant response rating, Soybean",soybean; [2],0
same,Soybean plant response rating,soybean; [3],2
same,Soybean plant response rating,soybean; [4],3
same,Sugarbeets plant response rating,sugar beet; [1],0
same,"Plant response rating, Sugarbeets",sugar beet; [2],2
same,Sugarbeets plant response rating,sugar beet; [3],4
same,Sugarbeets plant response rating,sugar beet; [4],7
same,Velvetleaf plant response rating,velvetleaf; [1],0
same,"Plant response rating, Velvetleaf",velvetleaf; [2],2
same,Velvetleaf plant response rating,velvetleaf; [3],6
same,Velvetleaf plant response rating,velvetleaf; [4],6
same,Wheat plant response rating,wheat; [1],0
same,"Plant response rating, Wheat",wheat; [2],0
same,Wheat plant response rating,wheat; [3],0
same,Wheat plant response rating,wheat; [4],0
same,Wild oats plant response rating,wild oat; [1],0
same,"Plant response rating, Wild oats",wild oat; [2],4
same,Wild oats plant response rating,wild oat; [3],7
same,Wild oats plant response rating,wild oat; [4],9
same,Nutsedge plant response rating,purple nutsedge; [1],0
same,"Plant response rating, Nutsedge",purple nutsedge; [2],0
same,Nutsedge plant response rating,purple nutsedge; [3],3
same,Nutsedge plant response rating,purple nutsedge; [4],3
